From patent publication US20240158446A1, “CYCLIC COMPOUND HAVING SELECTIVE INHIBITORY ACTION ON KRAS OVER HRAS AND NRAS” (CHUGAI SEIYAKU KABUSHIKI KAISHA, priority 2021, published 2024)

Assays:
[1] = target: GDP-bound HRAS wild-type protein (Homo sapiens, UniProt P01112); test: Binding to HRAS by surface plasmon resonance (SPR), Single Cycle Kinetics; conditions: for HRAS/KRAS (ratio of KD value with respect to GDP-bound HRAS wild-type protein to KD value with respect to KRAS): SPR KD ratio HRAS/KRAS, class symbols; for HRAS/KRAS (ratio of KD value for HRAS to KD value for KRAS) / HRAS/KRAS (ratio of KD value with respect to HRAS to KD value with respect to KRAS): SPR, GDP-bound HRAS wild-type protein vs GDP-bound KRAS wild-type protein
[2] = target: GDP-bound NRAS wild-type protein (Homo sapiens, UniProt P01111); test: Binding to NRAS by surface plasmon resonance (SPR), Single Cycle Kinetics; conditions: for NRAS/KRAS (ratio of KD value with respect to GDP-bound NRAS wild-type protein to KD value with respect to KRAS): SPR KD ratio NRAS/KRAS, class symbols; for NRAS/KRAS (ratio of KD value for NRAS to KD value for KRAS) / NRAS/KRAS (ratio of KD value with respect to NRAS to KD value with respect to KRAS): SPR, GDP-bound NRAS wild-type protein vs GDP-bound KRAS wild-type protein
Chain of GDP-bound NRAS wild-type protein (P01111 whole entry): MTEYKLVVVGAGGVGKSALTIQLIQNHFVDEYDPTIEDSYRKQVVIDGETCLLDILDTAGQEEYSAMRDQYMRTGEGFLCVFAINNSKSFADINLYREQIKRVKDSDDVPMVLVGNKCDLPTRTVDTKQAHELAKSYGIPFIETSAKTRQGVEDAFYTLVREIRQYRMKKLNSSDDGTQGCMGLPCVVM

Chain of GDP-bound HRAS wild-type protein (P01112 whole entry): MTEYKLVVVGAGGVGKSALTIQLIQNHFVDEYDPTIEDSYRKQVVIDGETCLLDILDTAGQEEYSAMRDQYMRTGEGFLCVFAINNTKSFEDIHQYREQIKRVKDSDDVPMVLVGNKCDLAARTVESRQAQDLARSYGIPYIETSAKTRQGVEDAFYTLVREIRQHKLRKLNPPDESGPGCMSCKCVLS

| Structure (SMILES) | HRAS/KRAS (ratio of KD value with respect to GDP-bound HRAS wild-type protein to KD value with respect to KRAS) [1] | NRAS/KRAS (ratio of KD value with respect to GDP-bound NRAS wild-type protein to KD value with respect to KRAS) [2] | HRAS/KRAS (ratio of KD value for HRAS to KD value for KRAS) [1] | NRAS/KRAS (ratio of KD value for NRAS to KD value for KRAS) [2] | further results |
| --- | --- | --- | --- | --- | --- |
| CCC(CC)[C@H]1C(=O)N(C)[C@H](C(=O)N(C)C)CC(=O)N(C)[C@@H](COC)C(=O)N[C@@H]([C@@H](C)CC)C(=O)N(C)CC(=O)N(C)[C@H]2C/C=C\CCN(C2=O)[C@@H](Cc2ccc(C)cc2)C(=O)N(C)CC(=O)N[C@@H](CCc2ccc(C(F)(F)F)c(Cl)c2)C(=O)N2CCCCC[C@H]2C(=O)NC2(CC(C)(C)C2)C(=O)N1C [PP2966] | A (a compound having 10 or more and less than 20 is denoted as A) | A (a compound having 10 or more and less than 20 is denoted as A) |  |  |  |
| CCO[C@@H]1C[C@H]2C(=O)NC3(CCC3)C(=O)N(C)[C@@H](C3CCCC3)C(=O)N(C)[C@H](C(=O)N3CCOCC3)CC(=O)N(C)[C@@H](CC(C)C)C(=O)N[C@@H]([C@@H](C)CC)C(=O)N(C)CC(=O)N(C)[C@H]3CC=C(C)CN(C3=O)[C@@H](Cc3ccc(C(F)(F)F)cc3)C(=O)N(C)CC(=O)N[C@@H](CCc3cc(F)c(C(F)(F)F)c(F)c3)C(=O)N2C1 [PP0826] |  |  | B (a compound having 3 or more and less than 10 is denoted as B) | C (A compound having a KD ratio of 0.1 or more and less than 3 is denoted as C) |  |
| CCC[C@H]1C(=O)N[C@@H]([C@@H](C)CC)C(=O)N(C)CC(=O)N(C)[C@H]2C/C=C\CCN(C2=O)[C@@H](Cc2ccc(C(F)(F)F)cc2)C(=O)N(C)CC(=O)N[C@@H](CCc2ccc(C3CC3)c(Cl)c2)C(=O)N2C[C@H](OCC)C[C@H]2C(=O)NC2(CC(C)(C)C2)C(=O)N(C)[C@@H](C2CCCC2)C(=O)N(C)[C@H](C(=O)N(C)C)CC(=O)N1C [PP2858] | B (a compound having 3 or more and less than 10 is denoted as B) | A (a compound having 10 or more and less than 20 is denoted as A) |  |  |  |
| CCC[C@H]1C(=O)N[C@@H]([C@@H](C)CC)C(=O)N(C)CC(=O)N(C)[C@H]2C/C=C\CCN(C2=O)[C@@H](Cc2ccc(C(F)(F)F)cc2)C(=O)N(C)CC(=O)N[C@@H](CCc2cc(F)c(Cl)c(OC)c2)C(=O)N2C[C@H](OCC)C[C@H]2C(=O)NC2(CC(C)(C)C2)C(=O)N(C)[C@@H](C2CCCC2)C(=O)N(C)[C@H](C(=O)N(C)C)CC(=O)N1C [PP2864] | A (a compound having 10 or more and less than 20 is denoted as A) | A (a compound having 10 or more and less than 20 is denoted as A) |  |  |  |
| CC[C@@H]1C[C@H]2C(=O)NC3(CCC3)C(=O)N(C)[C@@H](C3CCCC3)C(=O)N(C)[C@H](C(=O)N(C)C)CC(=O)N(C)[C@@H](CC(C)C)C(=O)N[C@@H]([C@@H](C)CC)C(=O)N(C)CC(=O)N(C)[C@H]3C/C=C\CCN(C3=O)[C@@H](Cc3ccc(C)cc3)C(=O)N(C)CC(=O)N[C@@H](CCc3cc(F)c(C(F)(F)F)c(F)c3)C(=O)N2C1 [PP2220] |  |  | A (a compound having 10 or more and less than 20 is denoted as A) | A (a compound having 10 or more and less than 20 is denoted as A) |  |
| CC[C@H](C)[C@@H]1NC(=O)[C@H](CC(C)C)N(C)C(=O)C[C@@H](C(=O)N(C)C)N(C)C(=O)[C@H](C2CCCC2)N(C)C(=O)C2(CCCC2)NC(=O)[C@@H]2CCCN2C(=O)[C@H](CCc2ccc(C(F)(F)F)c(Cl)c2)NC(=O)CN(C)C(=O)[C@H](Cc2ccc(C)cc2)N2CC=CCOC[C@H](C2=O)N(C)C(=O)CN(C)C1=O [PP0629] |  |  |  |  | HRAS/KRAS (ratio of KD value with respect to HRAS to KD value with respect to KRAS) [1]: C (A compound having a KD ratio of 0.1 or more and less than 3 is denoted as C); NRAS/KRAS (ratio of KD value with respect to NRAS to KD value with respect to KRAS) [2]: B (a compound having 3 or more and less than 10 is denoted as B) |
| CCCN1C(=O)CN(C)C(=O)CN(C)C(=O)[C@H]([C@@H](C)CC)NC(=O)[C@@H]2COCC=CC[C@@](C)(NC(=O)[C@@H]3C[C@@H](OCC)CN3C(=O)[C@H](CCc3cc(F)c(C(F)(F)F)c(F)c3)NC(=O)CN(C)C(=O)[C@@H]1Cc1ccc(C(F)(F)F)cc1)C(=O)N(C)[C@@H](C1CCCC1)C(=O)N(C)[C@H](C(=O)N1CCOCC1)CC(=O)N2C (stereo in doubt) [PP0903] |  |  | C (A compound having a KD ratio of 0.1 or more and less than 3 is denoted as C) | B (a compound having 3 or more and less than 10 is denoted as B) |  |
| CCO[C@@H]1C[C@H]2C(=O)NC3(CCC3)C(=O)N(C)[C@@H](C3CCCC3)C(=O)N(C)[C@H](C(=O)N3CCOCC3)CC(=O)N(C)[C@@H](CC3CC3)C(=O)N[C@@H]([C@@H](C)CC)C(=O)N(C)CC(=O)N(C)[C@H]3CCCCCN(C3=O)[C@@H](Cc3ccc(C(F)(F)F)cc3)C(=O)N(C)CC(=O)N[C@@H](CCc3cc(F)c(C(F)(F)F)c(F)c3)C(=O)N2C1 [PP0682] |  |  |  |  | HRAS/KRAS (ratio of KD value with respect to HRAS to KD value with respect to KRAS) [1]: B (a compound having 3 or more and less than 10 is denoted as B); NRAS/KRAS (ratio of KD value with respect to NRAS to KD value with respect to KRAS) [2]: B (a compound having 3 or more and less than 10 is denoted as B) |
| CCC[C@H]1C(=O)N[C@@H]([C@@H](C)CC)C(=O)N(C)CC(=O)N(C)[C@H]2C/C=C\CCN(C2=O)[C@@H](Cc2ccc(C)cc2)C(=O)N(C)CC(=O)N[C@@H](CCc2ccc(C(F)(F)F)c(OC)c2)C(=O)N2CC3(CC3)C[C@H]2C(=O)NC2(CC(C)(C)C2)C(=O)N(C)[C@@H](CC(C)(C)C)C(=O)N(C)[C@H](C(=O)N(C)C)CC(=O)N1C [PP3009] |  |  | A (a compound having 10 or more and less than 20 is denoted as A) | A (a compound having 10 or more and less than 20 is denoted as A) |  |
| CCO[C@@H]1C[C@H]2C(=O)NC3(CCC3)C(=O)N(C)[C@@H](C3CCCC3)C(=O)N(C)[C@H](C(=O)N(C)CC)CC(=O)N(C)[C@@H](CC(C)C)C(=O)N[C@@H]([C@@H](C)CC)C(=O)N(C)CC(=O)N(C)[C@H]3C/C=C\CCN(C3=O)[C@@H](Cc3ccc(C(F)(F)F)cc3)C(=O)N(C)CC(=O)N[C@@H](CCc3ccc(Cl)c(Cl)c3)C(=O)N2C1 [PP2845] | A (a compound having 10 or more and less than 20 is denoted as A) | AA (a compound having 20 or more is denoted as AA) |  |  |  |
| C#CC[C@H]1C(=O)N[C@@H]([C@@H](C)CC)C(=O)N(C)CC(=O)N(C)[C@H]2C/C=C\CCN(C2=O)[C@@H](Cc2ccc(C)cc2)C(=O)N(C)CC(=O)N[C@@H](CCc2cc(F)c(C(F)(F)F)c(F)c2)C(=O)N2CC3(CC3)C[C@H]2C(=O)NC2(CC(C)(C)C2)C(=O)N(C)[C@@H](C2CCCC2)C(=O)N(C)[C@H](C(=O)N(C)C)CC(=O)N1C [PP2978] |  |  | A (a compound having 10 or more and less than 20 is denoted as A) | A (a compound having 10 or more and less than 20 is denoted as A) |  |
| CCC[C@H]1C(=O)N[C@@H]([C@@H](C)CC)C(=O)N(C)CC(=O)N(C)[C@H]2C/C=C\CCN(C2=O)[C@@H](Cc2ccc(C(F)(F)F)cc2)C(=O)N(C)CC(=O)N[C@@H](CCc2cc(Cl)c(C(F)(F)F)c(Cl)c2)C(=O)N2C[C@H](OCC)C[C@H]2C(=O)NC2(CC(C)(C)C2)C(=O)N(C)[C@@H](C2CCCC2)C(=O)N(C)[C@H](C(=O)N(C)C)CC(=O)N1C [PP2859] | A (a compound having 10 or more and less than 20 is denoted as A) | A (a compound having 10 or more and less than 20 is denoted as A) |  |  |  |
| CCO[C@@H]1C[C@H]2C(=O)NC3(CCC3)C(=O)N(C)[C@@H](C3CCCC3)C(=O)N(C)[C@H](C(=O)N3CCOCC3)CC(=O)N(CC)[C@@H](CC(C)C)C(=O)N[C@@H]([C@@H](C)CC)C(=O)N(C)CC(=O)N(C)[C@H]3C[C@@H](C)CCN(C3=O)[C@@H](Cc3ccc(C(F)(F)F)cc3)C(=O)N(C)CC(=O)N[C@@H](CCc3cc(F)c(C(F)(F)F)c(F)c3)C(=O)N2C1 [PP1030] |  |  | B (a compound having 3 or more and less than 10 is denoted as B) | B (a compound having 3 or more and less than 10 is denoted as B) |  |
| CCCOC[C@H]1C(=O)N[C@@H]([C@@H](C)CC)C(=O)N(C2CC2)CC(=O)N(C)[C@H]2C/C=C\CCN(C2=O)[C@@H](Cc2ccc(C(F)(F)F)cc2)C(=O)N(C)CC(=O)N[C@@H](CCc2ccc(C(F)(F)F)c(OC)c2)C(=O)N2C[C@H](OCC)C[C@H]2C(=O)N(C)C2(CCC2)C(=O)N(C)[C@@H](C2CCCC2)C(=O)N(C)[C@H](C(=O)N(C)C)CC(=O)N1C [PP2318] |  |  | A (a compound having 10 or more and less than 20 is denoted as A) | A (a compound having 10 or more and less than 20 is denoted as A) |  |
| CCC[C@H]1C(=O)N[C@@H]([C@@H](C)CC)C(=O)N(C2CC2)CC(=O)N(C)[C@H]2C/C=C\CCN(C2=O)[C@@H](Cc2ccc(C)cc2)C(=O)N(C)CC(=O)N[C@@H](CCc2ccc(C3CC3)c(C)c2)C(=O)N2C[C@H](OCC)C[C@H]2C(=O)NC2(CC(C)(C)C2)C(=O)N(C)[C@@H](C2CCCC2)C(=O)N(C)[C@H](C(=O)N(C)C)CC(=O)N1C [PP2886] | A (a compound having 10 or more and less than 20 is denoted as A) | A (a compound having 10 or more and less than 20 is denoted as A) |  |  |  |
